US6448442B1, “Contrast media” (Amersham Health AS, priority 1999, dated 2002)
Values joined by “and” are separate entries in the source; they are usually repeats but may differ in a detail not shown here. Equal entries are not always repeated.

Assay: Viscosity in aqueous solution at 20° C. (Example 82, Tables 1 and 2)
Assay type: physicochemical
Details: for Viscosity 350 mgI/ml (CALCULATED): calculated for 350 mgI/ml; for Viscosity at 400 mgI/ml (CALCULATED): calculated for 400 mgI/ml
Method: The viscosities in aqueous solution at 20° C. for some further compounds described above were determined and are listed in Table 2. […]

O=C(CO)Nc1c(I)c(CO)c(I)c(N(CCO)C(=O)CO)c1I [Example 5, N,N′-Bis(hydroxyacetyl)-N-(2-hydroxyethyl)-3,5-diamino-2,4,6-triiodobenzylalcohol]
Viscosity 350 mgI/ml (CALCULATED): 6.9 mPas
Viscosity at 400 mgI/ml (CALCULATED): 10.0 mPas
Viscosity 20° C. (concentration 435 mgI/ml): 13 mPas
Viscosity 20° C. (concentration 512 mgI/ml): 29 mPas
Viscosity (iodine concentration 435 mgI/mL): 13 mPas

O=C(CO)Nc1c(I)c(CO)c(I)c(N(CC(O)CO)C(=O)CO)c1I (centres unmarked) [Example 7, N,N′-Bis(hydroxyacetyl)-N-(2,3-dihydroxypropyl)-3,5-diamino-2,4,6-triiodobenzylalcohol]
Viscosity at 400 mgI/ml (CALCULATED): 11.5 mPas
Viscosity 20° C. (concentration 361 mgI/ml): 8 mPas
Viscosity (iodine concentration 361 mgI/mL): 8.0 mPas

CC(O)C(=O)Nc1c(I)c(CO)c(I)c(NC(=O)C(C)O)c1I (centres unmarked) [Example 8, N,N′-Bis(2-hydroxypropionyl)-3,5-diamino-2,4,6-triiodobenzylalcohol]
Viscosity at 400 mgI/ml (CALCULATED): 11.0 mPas
Viscosity 20° C. (concentration 370 mgI/ml): 8.3 mPas
Viscosity (iodine concentration 370 mgI/mL): 8.3 mPas

CC(O)C(=O)Nc1c(I)c(CO)c(I)c(N(CC(O)CO)C(=O)C(C)O)c1I (centres unmarked) [Example 11, N,N′-Bis(2-hydroxypropionyl)-N-(2,3-dihydroxypropyl)-3,5-diamino-2,4,6-triiodobenzylalcohol]
Viscosity at 400 mgI/ml (CALCULATED): 15 mPas
Viscosity 20° C. (concentration 409 mgI/ml): 17 mPas
Viscosity (iodine concentration 407 mgI/mL): 16 mPas

O=C(Nc1c(I)c(CO)c(I)c(N(CCO)C(=O)C(O)CO)c1I)C(O)CO (centres unmarked) [Example 13, N,N′-Bis(2,3-dihydroxypropionyl)-N-(2-hydroxyethyl)-3,5-diamino-2,4,6-triiodobenzylalcohol]
Viscosity at 400 mgI/ml (CALCULATED): 12.2 mPas
Viscosity 20° C. (concentration 398 mgI/ml): 12 mPas
Viscosity (iodine concentration 398 mgI/mL): 12 mPas

O=C(C(O)CO)N(CCO)c1c(I)c(CO)c(I)c(N(CCO)C(=O)C(O)CO)c1I (centres unmarked) [Example 14, N,N′-Bis(2,3-dihydroxypropionyl)-N,N-bis(2-hydroxyethyl)-3,5-diamino-2,4,6-triiodobenzylalcohol]
Viscosity at 400 mgI/ml (CALCULATED): 15.8 mPas
Viscosity 20° C. (concentration 373 mgI/ml): 12.0 mPas
Viscosity (iodine concentration 373 mgI/mL): 12 mPas

O=C(Nc1c(I)c(CO)c(I)c(N(CC(O)CO)C(=O)C(O)CO)c1I)C(O)CO (centres unmarked) [Example 15, N,N′-Bis(2,3-dihydroxypropionyl)-N-(2,3-dihydroxypropyl)-3,5-diamino-2,4,6-triiodobenzylalcohol]
Viscosity at 400 mgI/ml (CALCULATED): 17.8 mPas and 14.9 mPas
Viscosity 20° C. (concentration 291 mgI/ml): 5.4 mPas
Viscosity 20° C. (concentration 384 mgI/ml): 15 mPas
Viscosity 20° C. (concentration 394 mgI/ml): 14 mPas
Viscosity (iodine concentration 348 mgI/mL): 7.8 mPas
Viscosity (iodine concentration 394 mgI/mL): 14 mPas
Viscosity (iodine concentration 446 mgI/mL): 22 mPas
Viscosity (iodine concentration 537 mgI/mL): 75 mPas

O=C(NCC(O)CO)c1c(I)c(CO)c(I)c(N(CC(O)CO)C(=O)CO)c1I (centres unmarked) [Example 26, 5-[N′-(2,3-Dihydroxypropyl)-hydroxyacetamido]-3-hydroxymethyl-N-(2,3-dihydroxypropyl)-2,4,6-triiodobenzamide]
Viscosity 350 mgI/ml (CALCULATED): 9.4 mPas
Viscosity at 400 mgI/ml (CALCULATED): 15.1 mPas
Viscosity 20° C. (concentration 385 mgI/ml): 13 mPas
Viscosity (iodine concentration 385 mgI/mL): 13 mPas

CC(O)C(=O)Nc1c(I)c(CO)c(I)c(C(=O)NCC(O)CO)c1I (centres unmarked) [Example 27, 5-(2-Hydroxypropionylamino)-3-hydroxymethyl-N-(2,3-dihydroxypropyl)-2,4,6-triiodobenzamide]
Viscosity at 400 mgI/ml (CALCULATED): 12.5 mPas
Viscosity 20° C. (concentration 412 mgI/ml): 14 mPas
Viscosity (iodine concentration 412 mgI/mL): 14 mPas
